As a reminder, the IC50 is the concentration needed to halve the response being measured.

T1 sequence (Q7Z2W7 whole entry): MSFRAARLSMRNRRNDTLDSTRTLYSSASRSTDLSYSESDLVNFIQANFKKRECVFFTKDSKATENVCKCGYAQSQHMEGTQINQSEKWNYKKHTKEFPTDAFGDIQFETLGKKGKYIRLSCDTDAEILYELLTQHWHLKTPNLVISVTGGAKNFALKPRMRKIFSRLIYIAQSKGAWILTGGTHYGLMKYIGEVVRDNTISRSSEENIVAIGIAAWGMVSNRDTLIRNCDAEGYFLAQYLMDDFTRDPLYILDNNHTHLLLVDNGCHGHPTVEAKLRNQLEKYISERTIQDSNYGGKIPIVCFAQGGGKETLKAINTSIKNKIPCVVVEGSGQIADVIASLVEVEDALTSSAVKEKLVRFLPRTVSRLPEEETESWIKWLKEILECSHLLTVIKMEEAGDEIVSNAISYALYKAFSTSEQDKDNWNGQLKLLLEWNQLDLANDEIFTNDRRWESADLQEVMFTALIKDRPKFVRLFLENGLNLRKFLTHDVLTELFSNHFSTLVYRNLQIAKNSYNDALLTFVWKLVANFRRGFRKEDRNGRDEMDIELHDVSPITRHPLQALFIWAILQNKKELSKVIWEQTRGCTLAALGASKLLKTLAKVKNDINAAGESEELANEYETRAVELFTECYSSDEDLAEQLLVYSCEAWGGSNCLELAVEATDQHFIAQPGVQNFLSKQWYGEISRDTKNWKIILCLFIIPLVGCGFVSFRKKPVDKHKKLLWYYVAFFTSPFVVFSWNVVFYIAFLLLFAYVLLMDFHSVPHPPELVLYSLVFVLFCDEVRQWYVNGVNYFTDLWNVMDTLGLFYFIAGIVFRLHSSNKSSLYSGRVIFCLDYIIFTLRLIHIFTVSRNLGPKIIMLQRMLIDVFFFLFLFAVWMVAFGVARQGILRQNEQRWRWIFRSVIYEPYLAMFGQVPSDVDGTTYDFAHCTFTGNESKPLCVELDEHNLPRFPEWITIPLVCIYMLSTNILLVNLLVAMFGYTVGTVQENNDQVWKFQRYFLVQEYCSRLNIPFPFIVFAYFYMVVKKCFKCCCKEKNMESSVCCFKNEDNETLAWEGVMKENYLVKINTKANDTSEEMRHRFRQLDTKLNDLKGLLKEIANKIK

The assay has as its target T1, human TRPM8 (Homo sapiens, UniProt Q7Z2W7).
T1 construct: expressed in transfected cells; host or cells: Chinese hamster ovary (CHO) cells, T-REx tetracycline-inducible system, co-transfected with aequorin
The assay can be described thus: Luminescence readout assay for measuring intracellular calcium, icilin activation. The class given is cell-based. The settings on record: CHO cells expressing human TRPM8, aequorin luminescence, 1 μM icilin activation; read-out: hTRPM8 IC50. Here is the method: Luminescence Readout Assay for Measuring Intracellular Calcium.
A stable Chinese hamster ovary cell line expressing human TRPM8 was generated using tetracycline inducible T-REx™ expression system from Invitrogen, Inc. (Carlsbad, Calif.). […] Twenty four hours before the assay, cells were seeded in 96-well plates and TRPM8 expression was induced with 0.5 μg/mL tetracycline. […] Potential antagonists were added 2.5 min prior to the addition of agonist, 1 μM icilin, 100 μM L-menthol, or 1 min prior to the addition of cold buffer (<10° C.). The luminescence was measured by a CCD camera based FLASH-luminometer built by Amgen, Inc. A cooling device attached to FLASH luminometer was used for cold activation.
For orientation: A change in cytosolic calcium serves as a functional read-out for many receptors and channels.
For the compound `C[C@@H](O)Cn1cc(C(=O)N[C@@H](c2ccc(C(F)(F)F)cc2)c2ncccc2F)ccc1=O` [Example 301, N-((S)-(3-fluoropyridin-2-yl)(4-(trifluoromethyl)phenyl)methyl)-1-((R)-2-hydroxypropyl)-6-oxo-1,6-dihydropyridine-3-carboxamide], the IC50 is 41.7 nM. For `COc1ccc(C(=O)N[C@@H](c2ccc(C(F)(F)F)cc2)c2ncccc2F)cc1` [Example 172, (S)-N-((3-fluoropyridin-2-yl)(4-(trifluoromethyl)phenyl)methyl)-4-methoxybenzamide], the half-inhibitory concentration (IC50) was 18.1 nM. Under `C=Cc1cccnc1[C@@H](NC(=O)c1ccc(=O)[nH]c1)c1ccc(C(F)(F)F)cc1` [Example 363, (S)-6-oxo-N-((4-(trifluoromethyl)phenyl)(3-vinylpyridin-2-yl)methyl)-1,6-dihydropyridine-3-carboxamide] stands 29.5 nM; under `CNC(=O)c1ccc(C(=O)N[C@@H](c2ccc(C(F)(F)F)cc2)c2ncccc2F)nc1` [Example 273, (S)—N^2-((3-Fluoropyridin-2-yl)(4-(trifluoromethyl)phenyl)-methyl)-N^5-methylpyridine-2,5-dicarboxamide 2,2,2-trifluoroacetate], 16.1 nM; under `O=C(N[C@@H](c1ccc(OC(F)(F)F)cc1)c1ncccc1F)c1ccn2nnnc2c1` [Example 310, (S)-N-((3-fluoropyridin-2-yl)(4-(trifluoromethoxy)phenyl)methyl)tetrazolo[1,5-a]pyridine-7-carboxamide], 16 nM. The figure for `Cn1cc(C(=O)N[C@@H](c2ccc(Cl)c(Cl)c2)c2ncccc2F)ccc1=O` [Example 251, (S)-N-((3,4-dichlorophenyl)(3-fluoropyridin-2-yl)methyl)-1-methyl-6-oxo-1,6-dihydropyridine-3-carboxamide 2,2,2-trifluoroacetate] is 19.3 nM; for `O=C1CCc2cc(C(=O)N[C@@H](c3ccc(C(F)(F)F)cc3)c3ncccc3F)ccc2N1` [Example 318, (S)-N-((3-fluoropyridin-2-yl)(4-(trifluoromethyl)phenyl)methyl)-2-oxo-1,2,3,4-tetrahydroquinoline-6-carboxamide] it is 29.7 nM; for `COc1ccc(C(=O)N[C@@H](c2ccc(F)cc2)c2ncccc2C(F)(F)F)cn1` [Example 124, (S)-N-((4-fluorophenyl)(3-(trifluoromethyl)pyridin-2-yl)methyl)-6-methoxynicotinamide] it is 190 nM. Under `O=C1COc2c(cccc2C(=O)N[C@@H](c2ccc(C(F)(F)F)cc2)c2ncccc2F)N1` [Example 77] stands 53 nM; under `CC(C)Cc1cc(C(=O)N[C@@H](c2ccc(C(F)(F)F)c(F)c2)c2ncccc2C(F)(F)F)c2ccccc2n1` [Example 156, (S)-N-((3-fluoro-4-(trifluoromethyl)phenyl)(3-(trifluoromethyl)pyridin-2-yl)methyl)-2-isobutylquinoline-4-carboxamide bis (2,2,2-trifluoroacetate)], 301 nM; under `O=C(N[C@@H](c1ccc(C(F)(F)F)cc1)c1ncccc1C(F)(F)F)c1cccc(=O)[nH]1` [Example 63, (S)-6-oxo-N-((4-(trifluoromethyl)phenyl)(3-(trifluoromethyl)pyridin-2-yl)methyl)-1,6-dihydropyridine-2-carboxamide], 134 nM.

On to `CC(C)(C)Cc1cccnc1[C@@H](NC(=O)c1ccc2ncccc2c1)c1ccc(C(F)(F)F)cc1` [Example 236, (S)-N-((3-neopentylpyridin-2-yl)(4-(trifluoromethyl)phenyl)methyl)quinoline-6-carboxamide], for which the IC50 amounted to 239 nM. As to `CC#Cc1cccnc1[C@@H](NC(=O)c1ccccc1)c1ccc(C(F)(F)F)cc1` [Example 98, (S)-N-((3-(prop-1-yn-1-yl)pyridin-2-yl)(4-(trifluoromethyl)phenyl)methyl)benzamide], the IC50 is 125 nM. The figure for `N#Cc1ccccc1C(=O)N[C@@H](c1ccc(C(F)(F)F)cc1)c1ncccc1C(F)(F)F` [Example 197, (S)-2-cyano-N-((4-(trifluoromethyl)phenyl)(3-(trifluoromethyl)pyridin-2-yl)methyl)benzamide] is 115 nM; for `O=C(N[C@@H](c1ccc(C(F)(F)F)cc1)c1ncccc1C(F)(F)F)c1ccc(Br)cn1` [Example 205, (S)-5-bromo-N-((4-(trifluoromethyl)phenyl)(3-(trifluoromethyl)pyridin-2-yl)methyl)picolinamide] it is 140 nM; for `O=C1CCCC(C(=O)N[C@@H](c2ccc(C(F)(F)F)cc2)c2ncccc2C(F)(F)F)C1` (stereo partly drawn) [Example 223, 3-oxo-N-((S)-(4-(trifluoromethyl)phenyl)(3-(trifluoromethyl)pyridin-2-yl)methyl)cyclohexanecarboxamide] it is 599 nM. For the compound `COc1ccc(C(=O)N[C@@H](c2ccc(OC(F)(F)F)c(F)c2)c2ncccc2F)[nH]c1=O` [Example 404, (S)-N-((3-fluoro-4-(trifluoromethoxy)phenyl)(3-fluoropyridin-2-yl)methyl)-5-methoxy-6-oxo-1,6-dihydropyridine-2-carboxamide], the half-inhibitory concentration (IC50) was determined as 3550 nM. Under `O=C(N[C@@H](c1ccc(C(F)(F)F)cc1)c1ncccc1F)c1ccc2c(O)ccnc2c1` [Example 105, (S)-N-((3-fluoropyridin-2-yl)(4-(trifluoromethyl)phenyl)methyl)-4-hydroxyquinoline-7-carboxamide 2,2,2-trifluoroacetate] stands 10.8 nM; under `CCc1cccnc1[C@@H](NC(=O)c1ccc(=O)[nH]c1)c1ccc(C(F)(F)F)cc1` [Example 430, (S)—N-((3-Ethylpyridin-2-yl)(4-(trifluoromethyl)phenyl)methyl)-6-oxo-1,6-dihydropyridine-3-carboxamide], 12.4 nM; under `O=C(N[C@@H](c1ccc(C(F)(F)F)cc1)c1ncccc1C(F)(F)F)c1ccc2ncsc2c1` [Example 239, (S)-N-((4-(trifluoromethyl)phenyl)(3-(trifluoromethyl)pyridin-2-yl)methyl)benzo[d]thiazole-6-carboxamide], 16 nM. Regarding `O=C(N[C@@H](c1ccc(C(F)(F)F)cc1)c1ncccc1F)c1ccc2cn[nH]c2c1` [Example 166, (S)-N-((3-fluoropyridin-2-yl)(4-(trifluoromethyl)phenyl)methyl)-1H-indazole-6-carboxamide], the IC50 worked out at 7.6 nM.

Regarding `O=C(Cc1cccnc1)N[C@@H](c1ccc(OC(F)(F)F)c(F)c1)c1ncccc1F` [Example 289, (S)-N-((3-fluoro-4-(trifluoromethoxy)phenyl)(3-fluoropyridin-2-yl)methyl)-2-(pyridin-3-yl)acetamide], the IC50 was 1610 nM. As for `O=C(N[C@@H](c1ccc(C(F)(F)F)cc1)c1ncccc1F)c1ccn2ccnc2c1` [Example 86, (S)-N-((3-fluoropyridin-2-yl)(4-(trifluoromethyl)phenyl)methyl)imidazo[1,2-a]pyridine-7-carboxamide], the 50% inhibitory concentration (IC50) turned out to be 10.2 nM.

As for `O=C(N[C@@H](c1ccc(Cl)c(Cl)c1)c1ncccc1C(F)(F)F)c1ccc2cccnc2c1` [Example 10], the IC50 was determined as 20.5 nM.

As for `O=C(N[C@@H](c1ccc(C(F)(F)F)cc1)c1ncccc1C(F)(F)F)c1ccc2cc[nH]c2n1` [Example 67, (S)-N-((4-(trifluoromethyl)phenyl)(3-(trifluoromethyl)pyridin-2-yl)methyl)-1H-pyrrolo[2,3-b]pyridine-6-carboxamide], the half-maximal inhibitory concentration (IC50) turned out to be 40 nM. The figure for `O=C(N[C@@H](c1ccc(OC(F)(F)F)c(F)c1)c1ncccc1F)c1c[nH]c(=O)c(F)c1` [Example 400, (S)-5-fluoro-N-((3-fluoro-4-(trifluoromethoxy)phenyl)(3-fluoropyridin-2-yl)methyl)-6-oxo-1,6-dihydropyridine-3-carboxamide] is 6.9 nM; for `O=C1CNc2cc(C(=O)N[C@@H](c3ccc(C(F)(F)F)cc3)c3ncccc3F)ccc2O1` [Example 75, (S)-N-((3-fluoropyridin-2-yl)(4-(trifluoromethyl)phenyl)methyl)-2-oxo-3,4-dihydro-2H-benzo[b][1,4]oxazine-6-carboxamide] it is 39.1 nM; for `O=C(N[C@@H](c1ccc(C(F)(F)F)cc1)c1ncccc1C(F)(F)F)c1c[nH]c2ncncc12` [Example 45, (S)-N-((4-(trifluoromethyl)phenyl)(3-(trifluoromethyl)pyridin-2-yl)methyl)-7H-pyrrolo[2,3-d]pyrimidine-5-carboxamide] it is 63.5 nM. Consider `Cc1ccc([C@H](NC(=O)c2ccc(=O)[nH]c2)c2ncccc2F)cc1F` [Example 334, (S)-N-((3-fluoro-4-methylphenyl)(3-fluoropyridin-2-yl)methyl)-6-oxo-1,6-dihydropyridine-3-carboxamide], for which the concentration for half-maximal inhibition (IC50) is 103 nM.

`O=C(N[C@@H](c1ccc(C(F)(F)F)cc1)c1ncccc1C(F)(F)F)c1cncc(O)c1` [Example 58, (S)-5-hydroxy-N-((4-(trifluoromethyl)phenyl)(3-(trifluoromethyl)pyridin-2-yl)methyl)nicotinamide]: the IC50 was determined as 63.9 nM. The figure for `O=C(N[C@@H](c1ccc(C(F)(F)F)cc1)c1ncccc1F)c1ccn2nnnc2c1` [Example 308, (S)-N-((3-fluoropyridin-2-yl)(4-(trifluoromethyl)phenyl)methyl)tetrazolo[1,5-a]pyridine-7-carboxamide] is 26.9 nM; for `Cc1ncc(C(=O)N[C@@H](c2ccc(C(F)(F)F)cc2)c2ncccc2C(F)(F)F)cn1` [Example 57, (S)-2-methyl-N-((4-(trifluoromethyl)phenyl)(3-(trifluoromethyl)pyridin-2-yl)methyl)pyrimidine-5-carboxamide] it is 63.1 nM.

The record behind these values is patent US8710043B2, “TRPM8 antagonists and their use in treatments” (Amgen Inc., priority 2011, dated 2014).
